Results taken from patent EP1323432A1, “Complexes of cyclodextrins with potassium ion homeostasis regulators” (priority 2001, dated 2003).

How the values were obtained:
Wistar Kioto male rats = test: Treadmill exercise: average duration of effort and recovery times after effort; type: in vivo; settings: for average duration of the effort on the treadmill: after day 14 of treatment, oral by endogastric tube for 30 days; for average duration of the effort on the treadmill / Average recovery times after effort: versus placebo; for effort lasting (duration of the repeated effort on a treadmill) / rats able to sustain the effort on a treadmill already 30 minutes after suspending their exercise / time after which the remaining rats were able to repeat the effort: day 30; for effort lasting (duration of the repeated effort on a treadmill): effort repeated 30 minutes after end of exercise; for effort lasting (duration of the repeated effort on a treadmill) / time after which the remaining rats were able to repeat the effort: same doses as E4; for rats able to sustain the effort on a treadmill already 30 minutes after suspending their exercise: oral, complex 1 360 µg/kg/day, 0.4 mg/kg/day (complex 2 3 mg/kg/day), 6 mg/kg/day (complex 3 50 mg/kg/day); for time after which the remaining rats were able to repeat the effort: rats not able to repeat at 30 minutes; for Average recovery times after effort: day 30 of treatment
Experimental: (§1) Wistar Kioto male rats weighing 350 g were divided into nine groups of eight animals each (numbered 1 to 8 for each test group) and were treated with amounts of complex 1 equal to 20 µg/kg/day or 40 µg/kg/day of noncomplexed active ingredient, of complex 2 equal to 0.4 mg/kg/day of noncomplexed active ingredient and of complex 3 equal to 6 mg/kg/day of noncomplexed active ingredient, orally with an endogastric tube for 30 days, during which the animals were exercised and tested. The tested doses were the minimum ones required to restore blood K^+ levels after exercise. • Placebo group treated with physiological solution enriched with hydroxypropyl-β-cyclodextrin; • Group treated with 20 µg/kg/day of 6-[1-piperidinyl]pyrimidine-2,4-diamine-3-oxide; • Group treated with […]/day of 6-[1-piperidinyl]pyrimidine-2,4-diamine-3-oxide; • Group treated with 180 µg/kg/day of complex 1; • Group treated with 360 µg/kg/day of complex 1; • Group treated with 0.4 mg/kg/day of [±]-N-cyano-N-4-pyridinyl-N-[1,2,2-trimethylpropyl]-guanidine; • Group treated with 3 mg/kg/day of complex 2; • Group treated with 6 mg/kg/day of N-[5-sulfamoyl-1,3,4-thiadiazol-2-yl]acetamide; • Group treated with 50 mg/kg/day of complex 3.
(§2) Levels of venous plasma K^+ taken from the femoral vein before and after exercise were also measured once a week per rat in animals anesthetized with chloral hydrate at a dose of 0.5 g/kg.
Each test group was subjected to daily trials at an initial speed of 15 m/min. In the second week, the speed was increased to 25 m/min, in the third week it was raised to 35 m/min, and in the fourth week it was increased to 45 m/min. Administration was performed in the morning.
The treadmill was equipped with a sensor which was sensitive to the weight of the rat, set to a generated weight force of 60 g/30 sec, and inserted in the rear wall of the time measurement chamber.

venous plasma K^+ [1] = test: Venous plasma K^+ levels before and after treadmill exercise; type: in vivo, Wistar Kioto male rats; settings: for K^+ values 30 minutes after the end of the administration: 0.4 mg/kg/day (complex 2 3 mg/kg/day), 6 mg/kg/day (complex 3 50 mg/kg/day); for levels of K^+ of the animals that did not respond to treatment: up to 100 minutes after the end of the effort
Experimental: as §1, §2

[2] = Undesirable effects: hypotension (pressure measured with flow meter); parameters: species or system rats; settings: rat, in vivo
Experimental: Pressure measurements were made by means of a T206 dual-channel flow meter by Transonic System Inc (Ithaca, NY, USA). In the control animals not subjected to stress or pharmacological treatments, pressure was 91±7 mm Hg (N=56 rats). The pressure values of the animals in our test groups prior to the beginning of pharmacological treatment were between 85 mm Hg and 105 mm Hg. The pressures were measured in the morning, at rest, prior to administration. […] The observed variations remained constant to the end of the treatment. […] The pressure values used to plot the chart refer to the values from day 21 to day 30 of treatment (Chart 4). [formula]

[3] = rat, in vivo
[4] = test system: patients affected by hypokalemias; settings: guanidine 25 mg/day or more, acetamide 100 and 500 mg/day; cited from earlier work
venous plasma K^+ [5] = test: Venous plasma K^+ levels before and after treadmill exercise; type: in vivo, Wistar Kioto male rats; settings: 5 animals per group; up to 100 minutes after the end of the effort; complex 1 180 µg/kg/day, noncomplexed 20 µg/kg/day
animal models = settings: doses of 1.5-5 mg/day, noncomplexed form; cited from earlier work
[6] = animals that responded to treatment
[7] = animals that responded to treatment, same doses as E13

Row | Molecule | average duration of the effort on the treadmill (Wistar Kioto male rats) | effort lasting (duration of the repeated effort on a treadmill) (Wistar Kioto male rats) | rats able to sustain the effort on a treadmill already 30 minutes after suspending their exercise (Wistar Kioto male rats) | time after which the remaining rats were able to repeat the effort (Wistar Kioto male rats) | Average recovery times after effort (Wistar Kioto male rats) | K^+ values 30 minutes after the end of the administration (venous plasma K^+ [1]; [6]) | K^+ values after 60 minutes (venous plasma K^+ [1]; [7]) | levels of venous K^+ after 100 minutes (venous plasma K^+ [1]; [7]) | levels of K^+ of the animals that did not respond to treatment (venous plasma K^+ [1]; same doses as E13) | reduction in average pressure [2] | average rate increase (heart rate) [3] | effect on muscular weakness, paralysis attacks and symptoms [4] | rats that responded to the treatment in terms of both functional and blood parameters (Wistar Kioto male rats; low dose: complex 1 180 µg/kg/day, noncomplexed 20 µg/kg/day) | values of K^+ 30 minutes after the end of the effort (venous plasma K^+ [1]) | levels of venous K^+ after 100 minutes (venous plasma K^+ [1]; after the end of the effort) | values of K^+ after 60 minutes (venous plasma K^+ [1]; after the end of the effort) | K^+ levels of the animals that did not respond to the treatment (venous plasma K^+ [5]) | effect on muscular weakness and muscular invalidity (animal models)
1 | CC(=O)Nc1nnc(S(N)(=O)=O)s1 [N-[5-sulfamoyl-1,3,4-thiadiazol-2-yl]acetamide] | significantly longer | 7 ± 2 min | 4 rats out of 8 | 80 min | reduced significantly | 6.2±2 mEq/l | 5.8±1 mEq/l | 5.6±1 mEq/l | below 3 mEq/l | 15% | 9±2% | useful in reducing symptoms and muscular invalidity caused by exercise |  |  |  |  |  | 
2 | [±]-N-cyano-N-4-pyridinyl-N-[1,2,2-trimethylpropyl]-guanidine | significantly longer | 7.4 ± 1 min | 5 rats out of 8 | 70 min | reduced significantly | 5.2±2 mEq/l | 4.8±1 mEq/l | 4.6±1 mEq/l | below 3 mEq/l | 13% | 14±2% | capable of reducing muscular weakness and the frequency of paralysis attacks |  |  |  |  |  | 
3 | Nc1cc(N2CCCCC2)nc(N)[n+]1[O-] [6-[1-piperidinyl]pyrimidine-2,4-diamine-3-oxide] | significantly longer | 7.2 ± 1 min | 6 rats out of 8 | 90 min | reduced significantly |  |  |  |  | 8% | 10±2% |  | 3 rats out of 8 | 5.2±2 mEq/l | 4.5±1 mEq/l | 4.2±1 mEq/l | lower than 3 mEq/l | capable of preventing muscular weakness and muscular invalidity
